What was measured:
RAW 264.7 cells [1] = assay: LDH cytotoxicity assay; format: cell-based, mouse; settings: IP6 for 24 hours
Experimental: RAW cells 264.7 were seeded at a density of 20,000 cells/cm2 in 24-well plate and cultured for 24 h. After cell attachment, culture media was changed and different doses of) IP6 were added. Cells were cultured for additional 24 hours and culture media was collected to test cytotoxicity (LDH activity). LDH cytotoxicity assay was performed using the Cytotoxicity Detection Kit according to the manufacturer's protocol. This colorimetric assay quantifies activity of LDH released from the cytosol of damaged cells into the supernatant and thus serves as an index of cell death.
Results were presented relative to the LDH activity in the media of control cells (low control, 0% of cell death) and of cells treated with 1% Triton X-100 (high control, 100% death) using the equation: Cytotoxicity (%)=(exp value−low control)/(high control−low control)*100. 3. Cell Proliferation Assay

[2] = background statement; cited from earlier work
[3] = tested on: human umbilical cord mesenchymal stem cells (hUC-MSCs); assay: Real-time RT-PCR of osteoblast markers in hUC-MSCs under osteogenic conditions; format: cell-based; settings: 4 μM IP6 for 19 days
Experimental: hUC-MSCs from two different donors were seeded (n=12) in 24-well plates and grown to confluence in growth media consisting of DMEM-LG supplemented with penicillin (50 IU/ml), streptomycin (50 μg streptomycin/mil) and 20% FBS. Cells were cultured at 37° C. in a humidified atmosphere of 5% CO2. At confluence (designated as day 0), cells were grown in differentiation media consisting of growth media supplemented with hydrocortisone (200 nM), ascorbic acid (50 μg/ml) and β-glycerophosphate (10 mM). Cell culture media, with or without IP6, was refreshed twice a week over a 19-day time period. The experimental procedure developed in example 5 was used. In this example, Real-time PCR was performed for two housekeeping genes: beta-actin, GAPDH; and four osteoblast markers: Runx2, Col1A, ALP and OC.

bone resorption = settings: background statement; cited from earlier work
RAW 264.7 cells [4] = assay: Real-time RT-PCR of osteoclast gene and functional markers; format: cell-based, mouse; settings: RANKL-treated cells, 5 days
Experimental: To examine the effect of IP6 on OCL formation, 20,000 cells/cm2 were seeded in 24-well plates and, after 24 h, the culture medium was replaced with media containing 100 ng/mL RANKL and different doses of IP6 (0.1, 1, 10, 100 μM). Treatments were added after changing the media every 48 h over the course of 5 days. The effect of IP6 on OCL formation was assessed by analysis of the number of TRAP-positive cells, gene expression levels of osteoclast and functional markers, resorption activity on dentin discs and actin ring formation.
Total RNA was isolated with Tripure from cells treated as describe above, following the instructions of the manufacturer. RNA was quantified using a spectrophotometer set at 260 nm (Nanodrop, Thermo Fisher Scientific Inc, US).
The same amount of total RNA ([…]) from each sample was reverse transcribed to cDNA at 37° C. for 60 minutes in a final volume of […], using High Capacity RNA to cDNA kit (Applied Biosystems, USA). Each cDNA was diluted 1/5 and aliquots, to avoid freezing and thawing cycles, were stored at −20° C. until the PCR reactions were carried out.
Real-time PCR was performed for two housekeeping genes: 18S rRNA, GAPDH; three osteoclast gene markers: TRAP, CalcR, CFMS; and four osteoclast functional markers: CtsK, MMP-9, Car2 and H+-ATPase.
Real-time PCR was performed in the Lightcycler 480® (Roche Diagnostics, Mannheim, Germany) using SYBR green detection. Each reaction contained 7 μl Lightcycler-FastStart DNA MasterPLUS SYBR Green I (containing Fast Start Taq polymerase, reaction buffer, dNTPs mix, SYBRGreen I dye and MgCl2), 0.5 μM of each, the sense and the antisense specific primers (Table 1) and 3 μl of the cDNA dilution in a final volume of 10 μl. The amplification program consisted of a preincubation step for denaturation of the template cDNA (5 min 95° C.), followed by 45 cycles consisting of a denaturation step (10 s 95° C.), an annealing step (10 s 60° C.) and an extension step (10 s 72° C.). After each cycle, fluorescence was measured at 72° C. A negative control without cDNA template was run in each assay.
To allow relative quantification after PCR, standard curves were constructed from standard reactions for each target and housekeeping genes. The crossing point readings for each of the unknown samples were used to calculate the amount of either the target or housekeeping relative to a standard curve, using the Second Derivative Maximum Method. Relative mRNA levels were calculated as the ratio of relative concentration for the target genes in the same sample using the Advanced Relative Quantification Method provided by the LightCycler 480 analysis software version 1.5 (Roche Diagnostics, Mannheim, Germany).

RAW 264.7 cells [5] = assay: Resorption pit assay on dentine discs; format: cell-based, mouse; settings: 1 μM IP6 during osteoclastogenesis
Experimental: RAW 264.7 cells were seeded on dentine slices at a density of 20,000 cells/cm^2. To study the effect of IP6 on OCL formation cells were cultured with media containing 100 ng/mL RANKL and IP6 (1 μM) over the course of the entire experiment. To study the effect of IP6 on mature osteoclasts-like cells. OCLs were generated by dosing RAW 264.7 cells with RANKL over the course of 6 days and then treated with IP6 (1 μM) for 4 days. After the culturing period, cells were removed from the dentine slices by sonication in 0.1 N NaOH for 2 minutes, stained in hematoxylin for 40 seconds and washed in distilled water. The surface of each dentine slice was examined by light microscopy for evidence of lacunar resorption and quantitative analysis of the resorption area was performed with Image J software 1.44p (NIH, USA).

RAW 264.7 cells [6] = assay: Cell proliferation assay (BrdU incorporation); format: cell-based, mouse; settings: IP6 for 24 hours, BrdU for 6 h
Experimental: RAW cells 264.7 were seeded at a density of 2,500 cells/well in a 96-well plate and cultured for 24 h. After cell attachment, culture media was changed and different doses of IP6 were added. Cells were cultured for additional 24 hours and BrdU was added for the last 6 hours. Incorporation of BrdU was determinated by Cell Proliferation ELISA kit as described by the manufacturer.

RAW 264.7 cells [7] = assay: RANKL-induced osteoclast (OCL) formation, TRAP staining; format: cell-based, mouse; settings: 5 days
Experimental: Osteoclast-like cells were generated in culture from RAW 264.7 cells. 20,000 cells/cm2 were seeded in 24-well plates and placed in the CO2 incubator overnight to allow the cells to attach to the surface. After 24 h, the culture medium was replaced with media containing 100 ng/mL RANKL. Osteoclasts were successfully generated by dosing with RANKL every 48 h over the course of 5 days. To confirm the generation of multinucleated osteoclast-like cells, the cultured cells were stained for the enzyme TRAP using the TRAP-staining kit, according to the manufacturer's instructions. TRAP is the enzyme that has been used as a marker of osteoclast function for more than 20 years. TRAP-positive multinucleated osteoclasts were visualized by light microscopy and photographed. Each OCL formation assay was performed at least 3 times. To examine the effect of IP6 on OCL formation, 20,000 cells/cm2 were seeded in 24-well plates and, after 24 h, the culture medium was replaced with media containing 100 ng/mL RANKL and different doses of IP6 (0.1, 1, 10, 100 μM). Treatments were added after changing the media every 48 h over the course of 5 days. The effect of IP6 on OCL formation was assessed by analysis of the number of TRAP-positive cells, gene expression levels of osteoclast and functional markers, resorption activity on dentin discs and actin ring formation.

In the case of `O=P(O)(O)O[C@H]1[C@H](OP(=O)(O)O)[C@@H](OP(=O)(O)O)[C@H](OP(=O)(O)O)[C@@H](OP(=O)(O)O)[C@H]1OP(=O)(O)O` [IP6, Myo-inositol-1,2,3,4,5,6-hexakisphosphate], the “cell viability (LDH activity)” value (RAW 264.7 cells [1]) is given as “without affecting”, the hydroxyapatite dissolution [2] is given as “potent inhibitor” and the “ALP mRNA levels compared to the control group” value [3] is given as “higher”. The “Col1A mRNA levels compared to the control group” value [3] was “lower”, the “OC mRNA levels compared to the control group” value [3] was “higher” and the “Runx-2 mRNA levels compared to the control group” value [3] was “higher”. For the same molecule, the “osteoblast differentiation of hUC-MSCs” value [3] was “increases”, the “bone resorption in animal models of osteoporosis” value (bone resorption) was “inhibitor of bone resorption” and the “MMP-9 mRNA levels” value (RAW 264.7 cells [4]) was “decreased”. For the same molecule, the “TRAP mRNA levels” value (RAW 264.7 cells [4]) was “decreased”, the “calcitonin receptor mRNA levels” value (RAW 264.7 cells [4]) was “decreased” and the “cathepsin K mRNA levels” value (RAW 264.7 cells [4]) was “decreased”. The “RANKL-induced osteoclast bone resorption ability” value (RAW 264.7 cells [5]) was “inhibits”, the “cell proliferation (BrdU)” value (RAW 264.7 cells [6]) was “without affecting” and the “osteoclastogenesis induced by RANKL” value (RAW 264.7 cells [7]; 100 ng/mL RANKL) was “decreases”. For the same molecule, the “number of TRAP positive cells” value (RAW 264.7 cells [7]; RANKL-treated cells) was “decreased”.
